Laboratory results from a melting point compilation (Tetko et al.).

SMILES | melting point
COC(=O)C(=O)CC(=O)c1ccccc1OC | 80 to 84 °C
NC(=O)C1CCCC1N (centres undefined) | 123 to 125 °C
CCOc1ccc(S(=O)(=O)NN)cc1 | 114 to 116 °C
O=[N+]([O-])c1c(Cl)nc2ccccn12 | 170 to 172 °C
Cc1ccc(-c2csc(N)n2)s1 | 129 to 131 °C
N#Cc1cc2c([nH]c1=O)CCC(c1ccccc1)C2 (centres undefined) | 279 to 281 °C
Cc1ccc(S(=O)(=O)NCc2ccco2)cc1C(=O)O | 178 to 180 °C
O=C(O)c1cnc2ccsc2c1 | 259 to 261 °C
Cc1cc(C=O)c(C)n1-c1ccc(Cl)c(C(F)(F)F)c1 | 88 to 90 °C
COc1ccc(S(N)(=O)=O)cc1N | 145 to 147 °C
O=C(O)Cc1csc(-c2cccnc2)n1 | 115 to 117 °C
COC(=O)c1nnc2ccccc2c1Cl | 147 to 149 °C
CC(=O)CSc1ccccc1C(=O)O | 158 to 160 °C
O=C(CC(=O)C(F)(F)F)c1ccncc1 | 255 to 257 °C
O=C1NC(=O)C2CN(Cc3ccccc3)CC12 (centres undefined) | 91 to 93 °C
CC1CNC(=O)N(c2ccccc2)C1=O (centres undefined) | 174 to 176 °C
CC(C)S(=O)(=O)c1ccc(C(=O)O)cc1 | 186 to 188 °C
NCc1ccc(NC(=O)CN2CCc3ccccc32)cc1 | 126 to 128 °C
Cc1ccc(C(=O)O)cc1NC(=O)c1ccccc1 | 269 to 271 °C
O=Cc1ccc(N2CCOCC2)c(F)c1 | 68 to 70 °C
Cc1nn(C)c(SCC(=O)O)c1C=O | 126 to 128 °C
COc1ccc(-c2noc(=O)[nH]2)cc1OC | 211 to 213 °C
Oc1cccc(Oc2ccncn2)c1 | 102 to 104 °C
O=C(O)c1ccc(NS(=O)(=O)c2ccc(Br)cc2)cc1 | 267 to 269 °C

SMILES | melting point
CC(C)(C)NS(=O)(=O)c1ccc(C(=O)O)cc1 | 181 to 185 °C
O=C(O)CCC(=O)N1CCOc2ccccc21 | 109 to 111 °C
CCC(=O)Nc1cccc(CN)c1 | 56 to 58 °C
OCc1cnc2ccccc2c1 | 82 to 84 °C
CC(C)n1ncc2c(C(=O)O)cc(-c3ccco3)nc21 | 275 to 277 °C
Cc1cccc2c(=O)[nH]c(CC#N)nc12 | 233 to 235 °C
COc1ccc(C(=O)N2CCCC2)cc1N | 137 to 139 °C
BrCCCOc1ccc2ccccc2c1 | 56 to 58 °C
Cc1ccccc1-c1noc(=O)[nH]1 | 155 to 157 °C
CCOC(=O)CCS(=O)(=O)c1ccc(F)cc1 | 38 to 40 °C
Cc1cc(-c2nnn[nH]2)ccc1F | 109 to 111 °C
Cc1ccc(-c2nc3ccc(F)cc3n2C(C)C)cc1N | 183 to 185 °C
Cc1ccc(F)c(N2CCCC(Br)C2=O)c1 (centres undefined) | 74 to 76 °C
COc1ccccc1NC(=O)c1ccc(NC(=O)C(C)Cl)cc1 (centres undefined) | 149 to 151 °C
COC(=O)c1c(-c2ccc(F)cc2)csc1N | 135 to 137 °C
COC(=O)c1cc(C)nc2nc(S)[nH]c(=O)c12 | 259 to 261 °C
Cc1ccnc2c1NC(=O)CN2 | 216 to 218 °C
O=C(O)COc1ccccc1-c1ccccc1 | 102 to 104 °C
COc1ccc(C2(C(=O)O)CCC2)cc1 | 95 to 97 °C
CCCCNc1c(N)n(CCC)c(=O)[nH]c1=O | 201 to 203 °C
CNCC(O)COc1ccc(C(F)(F)F)cc1 (centres undefined) | 85 to 87 °C
Cc1ccc(S(=O)(=O)Oc2cccnc2[N+](=O)[O-])cc1 | 83 to 85 °C
CC(C)CCS(=O)(=O)CC(=O)O | 61 to 63 °C
CS(=O)(=O)c1ccc(C(N)=O)cc1 | 226 to 228 °C

SMILES | melting point
COc1ccc(-c2nnc(S)n2N)c(OC)c1 | 200 to 202 °C
CN(C)c1ccc(-c2nc3ccccc3s2)cc1 | 171 to 173 °C
CCOC(=O)c1c(C)[nH]c(C=O)c1C | 162 to 164 °C
CCC(C)C(=O)NCC(=O)O (centres undefined) | 101 to 104 °C
Cc1ccnc(N)c1C#N | 148 to 150 °C
CSc1nc(-c2ccccc2)c[nH]1 | 130 to 132 °C
O=C(CCl)N(Cc1ccccc1)c1ccccc1 | 79 to 81 °C
Cc1cc(-c2noc(CCC(=O)O)n2)ccc1F | 124 to 126 °C
O=C(O)C1(c2ccc(F)cc2F)CCC1 | 64 to 66 °C
O=C(CCn1ccnc1)NC1CCC(C(=O)O)CC1 (centres undefined) | 229 to 231 °C
NC(=O)c1ccc(S(N)(=O)=O)s1 | 214 to 216 °C
COc1cc(C(=O)O)sc1S(N)(=O)=O | 254 to 256 °C
Cn1ccnc(NN)c1=O | 131 to 133 °C
Nc1ccc(S(=O)(=O)NC2CCC(O)CC2)cc1 (centres undefined) | 154 to 156 °C
COc1ccc(CC(=O)O)cc1S(=O)(=O)Cl | 166 to 168 °C
NC(=S)CN1C(=O)c2ccccc2C1=O | 173 to 175 °C
COc1cc2c(c(OC)c1)C(=O)C(=O)N2 | 289 to 291 °C
ClCc1nc(-c2ccccc2Cl)no1 | 37 to 39 °C
CC(C)(C)c1cc(CCC(=O)O)cc(C(C)(C)C)c1O | 165 to 167 °C
O=[N+]([O-])c1cccc(-c2nn[nH]n2)c1 | 154 to 156 °C
CCc1cccc(C)c1NC(=O)CCl | 100 to 110 °C
O=C(O)CCn1nnnc1S | 156 to 158 °C
Cc1nn(C)c(C)c1C(=O)C(=O)O | 160 to 168 °C
N#CCc1nc2cc(Cl)ccc2s1 | 155 to 157 °C

SMILES | melting point
Cc1cc(N)n(-c2ccccc2C(F)(F)F)n1 | 102 to 104 °C
[N-]=[N+]=NCC(=O)NCc1ccccc1 | 39 to 41 °C
CC(C)N(C)S(=O)(=O)c1ccc(C(=O)O)cc1 | 176 to 178 °C
O=C(O)CCC(=O)N1CCC(O)CC1 | 121 to 123 °C
Cc1ccc(-c2ccc(O)cc2)cc1 | 155 to 157 °C
CC(C)(C)C(=O)N1CCc2cc(C(=O)O)ccc21 | 195 to 197 °C
N#Cc1ccc(NC(=O)OCC(F)(F)F)cc1 | 143 to 145 °C
Cn1cnc(S(=O)(=O)NC2CCCC2)c1Cl | 136 to 138 °C
CC(NC(=O)OC(C)(C)C)C1CCNCC1 (centres undefined) | 103 to 105 °C
CCN(CC)S(=O)(=O)c1ccc(C=CC(=O)O)cc1 | 184 to 186 °C
CN(C)CC(O)C(F)(F)F (centres undefined) | 63 to 65 °C
Nc1ncc(-c2ccc(Br)cc2)[nH]1 | 194 to 196 °C
O=C(OCCl)OC1CCCCC1 | 36 to 38 °C
O=C(O)CNCc1cccc(Br)c1 | 213 to 215 °C
Oc1ccc(-c2cnc3ccccc3n2)cc1 | 204 to 206 °C
O=C(O)C12CC3CC(CC(F)(C3)C1)C2 | 109 to 111 °C
O=C(O)c1cc2[nH]nnc2cc1F | 268 to 270 °C
Nc1cccc(-n2cc[nH]c2=O)c1 | 155 to 157 °C
COc1ccc(S(=O)(=O)CCC(=O)O)cc1OC | 139 to 141 °C
O=C(CCl)N1CCOC1=O | 53 to 55 °C
CC(C)c1ccccc1Oc1ccccc1C(=O)O | 133 to 135 °C
c1cc(-c2ccsc2)n[nH]1 | 110 to 112 °C
CCNC(=O)Nc1cccc(F)c1C(=O)O | 159 to 161 °C
O=[N+]([O-])c1cc(Cl)cc(Br)c1O | 126 to 128 °C

SMILES | melting point
Cc1ccc(-c2nnc(Cl)c3ccccc23)cc1C | 241 to 243 °C
O=C(O)c1cc(S)ccc1[N+](=O)[O-] | 234 to 236 °C
Cc1ccc(-c2cc(N)on2)cc1 | 148 to 150 °C
CN(C)S(=O)(=O)c1ccc(-c2csc(N)n2)cc1 | 243 to 245 °C
O=C(O)c1ccc(C(=O)c2cc[nH]c2)cc1 | 219 to 221 °C
Cc1nc(Cl)cc(Cl)n1 | 44 to 46 °C
O=C(O)c1cc2c(s1)-c1cc(F)ccc1SC2 | 279 to 281 °C
Nc1ccc(CN2CCCC2=O)cc1 | 124 to 126 °C
CSCCC(NC(=O)Cc1ccccc1)C(=O)O (centres undefined) | 101 to 103 °C
O=C(O)C1CC1c1ccccc1OC(F)F (centres undefined) | 63 to 65 °C
O=c1[nH]ccs1 | 55 to 57 °C
O=C(O)c1cn(-c2ccccc2Cl)nn1 | 133 to 135 °C
CC1c2ccccc2OC1C(=O)O (centres undefined) | 121 to 123 °C
CC(=O)Nc1ccc(Cl)cc1N | 141 to 143 °C
Sc1nnc(-c2sc3ccccc3c2Cl)o1 | 231 to 233 °C
O=C(Nc1cccc2cnccc12)OCC(F)(F)F | 181 to 183 °C
CCOc1ccc(Br)cc1S(=O)(=O)NC | 107 to 109 °C
CCOC(=O)Nc1nc2ccc(N)cc2s1 | 339 to 341 °C
Nc1cccc(C#Cc2ccccc2)c1 | 47 to 49 °C
CC(=O)Nc1ccc(Br)cc1[N+](=O)[O-] | 104 to 106 °C
Cc1ccc(S(=O)(=O)Nc2ccccc2Br)cc1 | 88 to 90 °C
CC(SC1=NS(=O)(=O)c2ccccc21)C(=O)O (centres undefined) | 182 to 184 °C
CC(N)c1ccc(NC(=O)c2ccc(F)cc2)cc1 (centres undefined) | 110 to 112 °C
O=C(O)c1ccc(N2CCOCC2)c([N+](=O)[O-])c1 | 186 to 188 °C

SMILES | melting point
Cc1[nH]c(=O)sc1C | 146 to 148 °C
O=C(O)CCn1cnc2sc3c(c2c1=O)CCCC3 | 193 to 195 °C
COc1cc(C=O)c(SC)cc1OC | 111 to 113 °C
Nc1nc(-c2ccc3c(c2)CCO3)cs1 | 173 to 175 °C
CON(C)C(=O)Cc1ccc(Cl)cc1 | 45 to 47 °C
NCc1ccc(N2CCS(=O)(=O)CC2)cc1 | 97 to 99 °C
CC(=O)Nc1sc2c(c1C(=O)O)CCCC2 | 210 to 212 °C
N#Cc1cccc(OC2CCNCC2)c1 | 52 to 54 °C
CCOCc1cc(C(=O)O)ccc1OC | 142 to 146 °C
Cc1c(Cl)ccc2ccc(Cl)nc12 | 92 to 94 °C
CC(C)(C)OC(=O)N1CCCC1CC(=O)O (centres undefined) | 107 to 109 °C
O=C(O)C1COCCO1 (centres undefined) | 59 to 61 °C
CCc1ccc2c(c1)C(=O)C(=O)N2 | 114 to 116 °C
N#Cc1ccnc(-n2ccnc2)c1 | 148 to 150 °C
CCCn1c(C)cc(C=O)c1C | 52 to 54 °C
NC1(c2ccc(Br)cc2)CCOCC1 | 85 to 87 °C
Brc1ccc(-n2cnnn2)cc1 | 180 to 182 °C
CC(C)C(=O)Nc1cccc(F)c1C(=O)O | 128 to 130 °C
COC(=O)c1cc(N)c(OC)c(OC)c1 | 127 to 129 °C
COC(=O)c1ccc2n[nH]c(=O)n2c1 | 225 to 227 °C
NC(=S)CCN1CCCCC1 | 104 to 106 °C
CC(C)NC(=O)Nc1ccc(CN)cc1 | 133 to 135 °C
O=[N+]([O-])c1cccc2cc(I)cnc12 | 118 to 120 °C
Cc1ccc(N)cc1N1CCCS1(=O)=O | 128 to 130 °C
